Results published in ChEMBL document CHEMBL5226307, “Advances in Cyclic Nucleotide Phosphodiesterase-Targeted PET Imaging and Drug Discovery” (J Med Chem, 2021).

Columns and labels:
[1] = molecular target: T1, cAMP and cAMP-inhibited cGMP 3',5'-cyclic phosphodiesterase 10A (Homo sapiens, UniProt Q9Y233); test: Binding affinity to PDE10A (unknown origin) assessed as dissociation constant
[2] = Stability in human plasma assessed as parent compound remaining after 120 mins; format: ADME, cell-free; conditions: read-out: Stability
[3] = Drug uptake in human caudate nucleus assessed as standardized uptake value; format: ADME, tissue-based
[4] = Drug uptake in human putamen nucleus assessed as standardized uptake value; format: ADME, tissue-based
[5] = Drug uptake in human globus pallidus assessed as standardized uptake value; format: ADME, tissue-based
[6] = molecular target: T1, cAMP and cAMP-inhibited cGMP 3',5'-cyclic phosphodiesterase 10A; test: Inhibition of PDE10A (unknown origin)
[7] = molecular target: Phosphodiesterase 1 (Homo sapiens, UniProt P54750+Q01064+Q14123); test: Inhibition of PDE1 (unknown origin); format: protein assay
[8] = molecular target: T2, cGMP-specific 3',5'-cyclic phosphodiesterase (Homo sapiens, UniProt O76074); test: Inhibition of PDE5 (unknown origin)
[9] = molecular target: T2, cGMP-specific 3',5'-cyclic phosphodiesterase; test: Inhibition of PDE5A (unknown origin)
[10] = molecular target: T2, cGMP-specific 3',5'-cyclic phosphodiesterase; test: Binding affinity to PDE5 (unknown origin); conditions: tested as the 18F-labelled form
[11] = molecular target: Phosphodiesterase 7 (Homo sapiens, UniProt Q13946+Q9NP56); test: Inhibition of PDE7 (unknown origin); format: protein assay
[12] = Stability in mouse brain measured at 15 mins; format: ADME, tissue-based; conditions: read-out: Stability
[13] = molecular target: T1, cAMP and cAMP-inhibited cGMP 3',5'-cyclic phosphodiesterase 10A; test: Inhibition of human PDE10A
[14] = Drug uptake in NMRI mouse lung assessed as maximum standardized uptake value incubated for 30 mins; format: ADME, tissue-based; conditions: in vivo, 0.5 h
[15] = Drug uptake in NMRI mouse lung incubated for 30 mins relative to control; format: ADME, tissue-based; conditions: in vivo, 0.5 h
[16] = Metabolic stability in baboon brain assessed as parent compound remaining incubated for 90 mins; format: ADME, tissue-based, Papio; conditions: read-out: Stability
[17] = molecular target: T3, cGMP-dependent 3',5'-cyclic phosphodiesterase (Homo sapiens, UniProt O00408); test: Inhibition of human PDE2A
T3 sequence (O00408 whole entry): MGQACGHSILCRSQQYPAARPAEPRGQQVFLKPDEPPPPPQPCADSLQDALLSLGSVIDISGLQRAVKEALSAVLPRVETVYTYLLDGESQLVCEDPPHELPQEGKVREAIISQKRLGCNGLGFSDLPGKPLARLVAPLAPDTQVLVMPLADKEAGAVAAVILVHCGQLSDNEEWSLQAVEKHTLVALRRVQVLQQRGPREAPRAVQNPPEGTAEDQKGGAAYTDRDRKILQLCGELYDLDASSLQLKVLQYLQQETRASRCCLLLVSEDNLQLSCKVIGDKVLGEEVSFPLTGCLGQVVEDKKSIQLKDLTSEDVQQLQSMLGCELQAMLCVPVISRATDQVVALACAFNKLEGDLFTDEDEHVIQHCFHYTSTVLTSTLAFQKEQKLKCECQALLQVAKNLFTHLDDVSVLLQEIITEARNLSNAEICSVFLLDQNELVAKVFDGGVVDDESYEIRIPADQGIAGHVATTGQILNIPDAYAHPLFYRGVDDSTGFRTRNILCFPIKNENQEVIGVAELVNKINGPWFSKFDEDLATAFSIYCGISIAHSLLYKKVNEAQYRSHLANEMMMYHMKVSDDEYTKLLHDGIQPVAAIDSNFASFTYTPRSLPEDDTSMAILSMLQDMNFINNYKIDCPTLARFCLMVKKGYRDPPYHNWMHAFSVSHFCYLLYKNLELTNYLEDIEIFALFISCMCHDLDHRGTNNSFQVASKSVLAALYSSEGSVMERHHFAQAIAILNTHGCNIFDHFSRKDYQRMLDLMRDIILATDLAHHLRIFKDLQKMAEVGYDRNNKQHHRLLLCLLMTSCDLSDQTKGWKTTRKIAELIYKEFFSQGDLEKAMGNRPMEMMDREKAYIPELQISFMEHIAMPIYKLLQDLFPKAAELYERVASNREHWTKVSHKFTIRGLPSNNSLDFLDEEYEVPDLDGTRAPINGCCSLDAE

[18] = molecular target: T1, cAMP and cAMP-inhibited cGMP 3',5'-cyclic phosphodiesterase 10A; test: Binding affinity to full length human PDE10A assessed as dissociation constant using [3H]-cAMP as substrate
[19] = molecular target: T1, cAMP and cAMP-inhibited cGMP 3',5'-cyclic phosphodiesterase 10A; test: Binding affinity to full length human PDE10A assessed as dissociation constant
[20] = molecular target: T1, cAMP and cAMP-inhibited cGMP 3',5'-cyclic phosphodiesterase 10A; test: Inhibition of human PDE10
[21] = molecular target: Dual 3',5'-cyclic-AMP and -GMP phosphodiesterase 11A (Homo sapiens, UniProt Q9HCR9); test: Inhibition of human PDE11
Chain of Dual 3',5'-cyclic-AMP and -GMP phosphodiesterase 11A (Q9HCR9 whole entry): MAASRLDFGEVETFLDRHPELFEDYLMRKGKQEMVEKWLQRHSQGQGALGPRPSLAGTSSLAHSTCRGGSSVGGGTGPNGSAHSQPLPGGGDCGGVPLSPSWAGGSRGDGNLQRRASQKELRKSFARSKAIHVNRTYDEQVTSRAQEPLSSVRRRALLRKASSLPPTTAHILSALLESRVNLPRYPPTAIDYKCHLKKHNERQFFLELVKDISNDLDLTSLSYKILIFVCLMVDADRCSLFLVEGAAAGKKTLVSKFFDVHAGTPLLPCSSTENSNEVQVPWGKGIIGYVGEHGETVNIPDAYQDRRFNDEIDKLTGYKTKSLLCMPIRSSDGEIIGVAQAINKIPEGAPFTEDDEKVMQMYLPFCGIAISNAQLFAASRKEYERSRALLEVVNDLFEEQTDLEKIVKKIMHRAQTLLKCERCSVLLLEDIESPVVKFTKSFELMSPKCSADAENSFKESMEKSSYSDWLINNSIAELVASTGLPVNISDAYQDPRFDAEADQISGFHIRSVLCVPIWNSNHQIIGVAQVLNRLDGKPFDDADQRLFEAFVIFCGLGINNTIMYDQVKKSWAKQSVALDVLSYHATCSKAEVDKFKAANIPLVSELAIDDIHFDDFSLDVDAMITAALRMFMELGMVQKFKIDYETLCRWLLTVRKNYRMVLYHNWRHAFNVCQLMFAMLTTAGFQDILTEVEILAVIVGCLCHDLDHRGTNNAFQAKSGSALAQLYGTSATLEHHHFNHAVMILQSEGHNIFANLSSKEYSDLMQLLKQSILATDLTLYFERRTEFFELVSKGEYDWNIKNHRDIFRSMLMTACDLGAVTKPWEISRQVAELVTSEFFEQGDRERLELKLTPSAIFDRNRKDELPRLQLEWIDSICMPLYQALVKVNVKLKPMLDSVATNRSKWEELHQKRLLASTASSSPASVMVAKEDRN

[22] = Metabolic stability in non human primates plasma assessed as parent compound remaining incubated for 70 mins by HPLC analysis; format: ADME, cell-free; conditions: read-out: Stability
[23] = Metabolic stability in cynomolgus monkey assessed as parent compound remaining incubated for 30 mins in presence of NADPH; format: ADME, Macaca fascicularis; conditions: read-out: Stability
[24] = molecular target: T4, cAMP and cAMP-inhibited cGMP 3',5'-cyclic phosphodiesterase 10A (Rattus norvegicus, UniProt Q9QYJ6)
T4 sequence (Q9QYJ6 whole entry): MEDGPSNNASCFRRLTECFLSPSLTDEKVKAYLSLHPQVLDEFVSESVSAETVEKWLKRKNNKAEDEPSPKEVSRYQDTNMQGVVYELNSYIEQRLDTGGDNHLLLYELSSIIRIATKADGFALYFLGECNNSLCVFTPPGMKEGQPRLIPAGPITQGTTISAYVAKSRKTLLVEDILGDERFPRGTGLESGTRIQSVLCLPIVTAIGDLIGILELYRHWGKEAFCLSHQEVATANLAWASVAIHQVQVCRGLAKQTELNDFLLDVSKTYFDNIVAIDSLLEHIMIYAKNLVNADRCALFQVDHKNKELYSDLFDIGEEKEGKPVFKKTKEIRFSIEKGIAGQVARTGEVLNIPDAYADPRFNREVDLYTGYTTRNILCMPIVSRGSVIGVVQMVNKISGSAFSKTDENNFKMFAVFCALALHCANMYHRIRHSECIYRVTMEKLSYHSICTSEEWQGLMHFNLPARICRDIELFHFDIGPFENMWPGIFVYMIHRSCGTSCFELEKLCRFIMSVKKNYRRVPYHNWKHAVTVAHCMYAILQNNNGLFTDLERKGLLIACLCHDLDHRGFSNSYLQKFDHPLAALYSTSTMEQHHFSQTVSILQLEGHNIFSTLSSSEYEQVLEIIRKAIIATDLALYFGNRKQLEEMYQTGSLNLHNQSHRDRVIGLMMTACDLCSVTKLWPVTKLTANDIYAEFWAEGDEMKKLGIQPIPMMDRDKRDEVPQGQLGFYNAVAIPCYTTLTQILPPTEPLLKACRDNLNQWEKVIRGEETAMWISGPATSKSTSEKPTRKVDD

[25] = Lipophilicity, logD of the compound in Octanol/potassium phosphate buffer at pH 7.4 after 1 hr by HPLC analysis; format: physicochemical
[26] = molecular target: High affinity 3',5'-cyclic-AMP phosphodiesterase 7A (Homo sapiens, UniProt Q13946); test: Inhibition of human PDE7A1
[27] = molecular target: Dual specificity calcium/calmodulin-dependent 3',5'-cyclic nucleotide phosphodiesterase 1B (Homo sapiens, UniProt Q01064); test: Inhibition of human PDE1B
Chain of Dual specificity calcium/calmodulin-dependent 3',5'-cyclic nucleotide phosphodiesterase 1B (Q01064 whole entry): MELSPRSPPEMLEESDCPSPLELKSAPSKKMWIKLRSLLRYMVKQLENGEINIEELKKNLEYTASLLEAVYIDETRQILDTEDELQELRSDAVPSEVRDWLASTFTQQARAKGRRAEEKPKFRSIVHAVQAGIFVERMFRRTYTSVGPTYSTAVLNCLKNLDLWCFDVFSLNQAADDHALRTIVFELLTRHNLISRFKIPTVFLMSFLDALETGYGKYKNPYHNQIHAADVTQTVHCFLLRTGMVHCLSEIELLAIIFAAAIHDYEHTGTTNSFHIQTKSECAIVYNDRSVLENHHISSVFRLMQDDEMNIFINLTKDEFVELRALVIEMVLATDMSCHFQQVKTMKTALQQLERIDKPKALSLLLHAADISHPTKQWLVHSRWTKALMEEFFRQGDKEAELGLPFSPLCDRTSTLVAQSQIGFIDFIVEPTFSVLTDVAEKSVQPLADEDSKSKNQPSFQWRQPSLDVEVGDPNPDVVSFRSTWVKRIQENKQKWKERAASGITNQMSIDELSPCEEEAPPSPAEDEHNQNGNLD

[28] = molecular target: Dual specificity calcium/calmodulin-dependent 3',5'-cyclic nucleotide phosphodiesterase 1C (Homo sapiens, UniProt Q14123); test: Inhibition of human PDE1C
Chain of Dual specificity calcium/calmodulin-dependent 3',5'-cyclic nucleotide phosphodiesterase 1C (Q14123 whole entry): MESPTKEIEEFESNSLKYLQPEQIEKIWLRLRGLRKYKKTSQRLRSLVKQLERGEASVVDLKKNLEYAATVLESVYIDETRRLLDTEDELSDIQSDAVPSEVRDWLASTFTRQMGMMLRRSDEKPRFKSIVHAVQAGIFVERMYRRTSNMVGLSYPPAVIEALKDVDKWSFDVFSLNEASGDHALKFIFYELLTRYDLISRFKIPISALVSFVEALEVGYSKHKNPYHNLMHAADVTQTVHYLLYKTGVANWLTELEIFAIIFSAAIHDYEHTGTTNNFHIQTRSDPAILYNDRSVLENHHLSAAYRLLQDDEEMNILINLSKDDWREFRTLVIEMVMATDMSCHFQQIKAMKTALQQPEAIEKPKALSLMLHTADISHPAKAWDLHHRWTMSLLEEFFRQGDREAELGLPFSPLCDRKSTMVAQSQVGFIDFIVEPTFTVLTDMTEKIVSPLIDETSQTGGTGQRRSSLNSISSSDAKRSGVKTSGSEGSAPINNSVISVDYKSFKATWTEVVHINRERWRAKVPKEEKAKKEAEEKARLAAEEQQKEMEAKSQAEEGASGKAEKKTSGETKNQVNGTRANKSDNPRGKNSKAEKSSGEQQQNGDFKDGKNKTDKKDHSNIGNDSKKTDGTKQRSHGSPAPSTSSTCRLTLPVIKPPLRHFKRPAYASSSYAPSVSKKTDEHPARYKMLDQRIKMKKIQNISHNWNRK

[29] = molecular target: T3, cGMP-dependent 3',5'-cyclic phosphodiesterase; test: Inhibition of human PDE2
[30] = molecular target: T2, cGMP-specific 3',5'-cyclic phosphodiesterase; test: Inhibition of human PDE5
[31] = molecular target: 3',5'-cyclic-AMP phosphodiesterase 4A (Homo sapiens, UniProt P27815); test: Inhibition of human PDE4A
Chain of 3',5'-cyclic-AMP phosphodiesterase 4A (P27815 whole entry): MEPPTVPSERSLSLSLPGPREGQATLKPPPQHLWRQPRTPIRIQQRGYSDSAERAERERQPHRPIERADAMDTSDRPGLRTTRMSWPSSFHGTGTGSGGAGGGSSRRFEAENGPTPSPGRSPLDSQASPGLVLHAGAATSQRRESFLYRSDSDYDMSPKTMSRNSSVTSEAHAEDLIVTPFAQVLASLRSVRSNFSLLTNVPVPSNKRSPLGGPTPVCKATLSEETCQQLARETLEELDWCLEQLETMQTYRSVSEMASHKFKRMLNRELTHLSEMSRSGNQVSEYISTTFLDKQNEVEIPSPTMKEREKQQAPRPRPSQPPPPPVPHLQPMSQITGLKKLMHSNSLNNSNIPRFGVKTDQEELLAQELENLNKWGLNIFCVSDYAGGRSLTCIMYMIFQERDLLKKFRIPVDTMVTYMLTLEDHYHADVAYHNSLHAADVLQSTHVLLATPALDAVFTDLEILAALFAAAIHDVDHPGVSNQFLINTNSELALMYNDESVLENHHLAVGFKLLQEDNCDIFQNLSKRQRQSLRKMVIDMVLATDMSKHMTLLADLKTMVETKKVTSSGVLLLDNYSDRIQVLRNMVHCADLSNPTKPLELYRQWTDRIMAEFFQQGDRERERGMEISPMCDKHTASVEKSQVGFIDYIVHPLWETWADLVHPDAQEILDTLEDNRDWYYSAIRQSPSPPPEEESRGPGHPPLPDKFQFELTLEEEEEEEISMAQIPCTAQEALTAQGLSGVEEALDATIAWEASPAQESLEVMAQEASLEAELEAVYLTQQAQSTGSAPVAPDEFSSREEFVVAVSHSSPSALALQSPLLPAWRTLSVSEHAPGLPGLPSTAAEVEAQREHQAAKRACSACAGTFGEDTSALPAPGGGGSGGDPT

[32] = Toxicity in mouse assessed as body weight loss at 10 mg/kg/day, po; format: organism-based; conditions: in vivo
[33] = Drug uptake in pig myocardium assessed as standardized uptake value; format: ADME, tissue-based, Sus scrofa; conditions: in vivo
[34] = molecular target: Phosphodiesterase 4 (Homo sapiens, UniProt P27815+Q08499+Q07343+Q08493); test: Binding affinity to human PDE4 assessed as dissociation constant; format: protein assay
[35] = Metabolic stability in mouse brain assessed as parent compound remaining incubated for 30 mins by HPLC analysis; format: ADME, tissue-based; conditions: read-out: Stability
[36] = Metabolic stability in mouse plasma assessed as parent compound remaining incubated for 30 mins by HPLC analysis; format: ADME, cell-free; conditions: read-out: Stability
[37] = Drug uptake in mouse striatum; format: ADME, tissue-based; conditions: in vivo
[38] = Drug uptake in mouse brown adipose tissue; format: ADME, tissue-based; conditions: in vivo
[39] = Drug uptake in mouse striatum assessed as standardized uptake value; format: ADME, tissue-based; conditions: in vivo

T1 sequence (Q9Y233 whole entry): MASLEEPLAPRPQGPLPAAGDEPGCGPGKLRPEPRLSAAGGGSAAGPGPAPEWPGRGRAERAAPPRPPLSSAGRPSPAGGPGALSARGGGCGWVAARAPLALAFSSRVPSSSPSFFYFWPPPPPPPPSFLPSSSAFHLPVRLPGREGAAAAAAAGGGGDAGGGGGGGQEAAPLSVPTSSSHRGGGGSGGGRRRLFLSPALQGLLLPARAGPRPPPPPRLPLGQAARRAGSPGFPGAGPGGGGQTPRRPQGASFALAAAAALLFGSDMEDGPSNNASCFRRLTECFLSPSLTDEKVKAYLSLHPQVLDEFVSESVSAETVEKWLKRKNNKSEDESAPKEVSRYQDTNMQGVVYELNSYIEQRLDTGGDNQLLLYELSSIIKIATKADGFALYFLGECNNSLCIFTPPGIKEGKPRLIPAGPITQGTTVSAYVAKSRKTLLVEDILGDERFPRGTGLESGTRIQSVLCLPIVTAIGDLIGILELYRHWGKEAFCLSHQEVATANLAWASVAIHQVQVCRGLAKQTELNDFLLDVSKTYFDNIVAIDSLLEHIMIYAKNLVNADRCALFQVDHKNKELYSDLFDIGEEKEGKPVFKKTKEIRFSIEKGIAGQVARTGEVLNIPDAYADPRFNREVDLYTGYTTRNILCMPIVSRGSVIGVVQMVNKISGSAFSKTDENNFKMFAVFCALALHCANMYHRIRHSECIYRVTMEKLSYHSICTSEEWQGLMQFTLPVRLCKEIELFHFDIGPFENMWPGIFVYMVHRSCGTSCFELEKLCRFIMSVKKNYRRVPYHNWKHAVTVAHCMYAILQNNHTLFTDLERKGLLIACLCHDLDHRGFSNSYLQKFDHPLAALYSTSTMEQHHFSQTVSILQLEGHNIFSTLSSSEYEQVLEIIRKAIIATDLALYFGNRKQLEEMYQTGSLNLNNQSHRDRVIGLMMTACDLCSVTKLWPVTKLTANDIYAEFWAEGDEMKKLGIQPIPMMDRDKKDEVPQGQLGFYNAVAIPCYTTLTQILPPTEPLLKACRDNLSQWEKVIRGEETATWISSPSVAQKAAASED

Cc1ccc2c(=O)n(-c3ccc4cnn(CC[18F])c4c3)c(CCN3C(=O)c4cccc(OC(C)C)c4C3=O)nc2c1
Kd [1]: 0.029 nM | remaining at 2 h [2]: 20% | SUV [3]: 0.7% | SUV [4]: 0.7% | SUV [5]: 1.5%

Cc1cnc(COc2ccc(-c3nn(CC[18F])cc3-c3ccncc3)cc2)c(C)c1
IC50 [6]: 2 nM

[11CH3]Oc1cn(-c2ccc(C3CCOCC3)cc2F)nc(-c2ccnn2-c2ccccc2)c1=O
IC50 [6]: 0.77 nM

CC(C)Cn1c(=O)n(C)c(=O)c2c(Nc3ccccc3)n(Cc3ccc(C4CCCN4C)cc3)nc21 (stereo not drawn)
IC50 [7]: 13 nM

COc1ccc(CNc2c(CO)cnc3c(N4CC(F)C4)cc(C#N)cc23)cc1Cl
IC50 [8]: 1.86 nM | IC50 [9]: 5.92 nM | Bmax [10]: 0.1 nM

[11CH3]n1nnc(COc2ccc(Cl)c3c2C2(CCCCC2)NC(=O)N3)n1
IC50 [11]: 1.7 nM | remaining at […] [12]: 74%

CCCCOc1ccc(F)c(-c2nc(C)c3nnc4ccc(OCC[18F])nc4n23)c1
IC50 [13]: > 1000 nM

CCCc1nn(C)c2c(=O)[nH]c(-c3cc(S(=O)(=O)N4CCN([11CH3])CC4)ccc3OCC)nc12
SUVmax [14]: 8 | Drug uptake [15]: > 86%

CC(=O)N1CCC(c2nccnc2Oc2ccc(C(=O)c3nc4ccccc4[nH]3)cc2)CC1
IC50 [6]: 0.18 nM

[11CH3]N(c1cc(N2CC[C@@H](F)C2)nc2cc(-c3cnc4c(n3)CCCC4)nn12)C1CCOCC1
IC50 [6]: 0.06 nM | remaining at 1.5 h [16]: 50%

COc1ccc2nnc3c(C)nc(-c4cc(OCCCC[18F])ccc4F)n3c2n1
IC50 [17]: 913 nM | IC50 [13]: 7.3 nM

[18F]CCn1cc(-c2ccncc2)c(-c2ccc(OCc3ccc4ccccc4n3)cc2)n1
IC50 [6]: 0.5 nM | Kd [18]: 3.17 nM | Kd [19]: 6.62 nM

COc1cc2nncc(-c3cnc(NC(C)C)c(C)c3)c2cc1O[11CH3]
IC50 [6]: 1.9 nM

CCCc1nc(C)c2c(=O)[nH]c(-c3cc(S(=O)(=O)N4CCN(CC[18F])CC4)ccc3OCC)nn12
SUVmax [14]: 8.9

Cc1ccc2c(=O)n(-c3ccc(OC[18F])cc3)c(CCN3C(=O)c4cccc(OC(C)C)c4C3=O)nc2c1
Kd [1]: 0.097 nM | remaining at 2 h [2]: 20%

COc1ccc2nnc3c(C)nc(-c4cc(OCCC[18F])ccc4F)n3c2n1
IC50 [17]: 11.4 nM | IC50 [13]: 7.3 nM

CC(C)C(=O)c1c(C(C)C)nn2ccccc12 [IBUDILAST]
IC50 [20]: ≤ 10000 nM | IC50 [21]: ≤ 10000 nM

[11CH3]n1cc(-c2ccncc2)c(-c2ccc(OCc3ccc4ccccc4n3)cc2)n1
remaining at 1.167 h [22]: 24% | remaining at 1.5 h [16]: 30%

CC([18F])C(=O)N1CCC(c2nccnc2Oc2ccc(C(=O)c3nc4ccccc4[nH]3)cc2)CC1 (stereo not drawn)
IC50 [6]: 0.13 nM

CCC(CC)Nc1ncnc2c(OC)c(OC)ccc12
IC50 [7]: 170 nM

Cc1ccc(C)n2nc(CCc3nc(-c4ccccc4)cn3[11CH3])nc12
remaining at 0.5 h [23]: 27% | IC50 [24]: 0.39 nM

O=C1Nc2c(Cl)ccc(OCC[18F])c2C2(CCCCC2)N1
IC50 [11]: 17 nM | remaining at […] [12]: 84%

CC(C)Oc1cccc2c1C(=O)N(CCc1nc3ccccc3c(=O)n1-c1ccc(O[11CH3])cc1)C2=O
logD at 1 h [25]: 3.19

Cc1ccc([N+](=O)[O-])cc1S(=O)(=O)N(C)C
IC50 [26]: 260 nM | IC50 [27]: 62000 nM | IC50 [28]: 62000 nM | IC50 [29]: 62000 nM | IC50 [30]: 62000 nM | IC50 [31]: 62000 nM

Cn1cc(-c2ccncc2)c(-c2ccc(OCc3ccc4ccccc4n3)cc2)n1 [MARDEPODECT]
Activity [32]: 8.61%

CCCCN1C(=O)[C@H]2Cc3c([nH]c4ccccc34)[C@@H](c3ccc(O[11CH3])cc3)N2C1=O
SUV [33]: 3.8

O=C1C[C@H](c2ccc(OCF)c(OC3CCCC3)c2)CN1
Kd [34]: 0.26 nM

COc1cc(Br)cc2c1nc(C)c1c(C)nc(-c3ccc([18F])nc3)n12
remaining at 0.5 h [35]: 88% | remaining at 0.5 h [36]: 64% | Drug uptake [37]: 130% | Drug uptake [38]: 30% | SUV [39]: 2.7

CCc1cc(C#N)cc2c(NCc3ccc(OC)c(Cl)c3)c(COCCF)cnc12
IC50 [9]: 5.92 nM | Bmax [10]: 0.1 nM

CCCCN1C(=O)[C@H]2Cc3c([nH]c4ccccc34)[C@@H](c3ccc(OC)cc3)N2C1=O
SUV [33]: 2.6
